How the values were obtained:
HDAC = conditions: cited from earlier work
[1] = Aqueous stability assay in DPBS buffer (HPLC); assay type: physicochemical; conditions: DPBS pH 7.4, 10% DMSO, room temperature, 72 hours
Procedure: and A6. Compounds were diluted in DPBS buffer (pH = 7.4; final DMSO concentration: 10%) and the remaining compound content was analyzed by HPLC. The peak area at 0 h was used for normalization.
Mean ± standard deviation of n = 2 replicates.
Figure S4. Analysis of time dependent degradation by 1j of HDAC1 (A) and HDAC6 (B) by Simple Western™ immunoassay analysis of MM.1S cell lysates. MM.1S cells were treated with 1j (10 µM) or vehicle (DMSO) for the indicated time period. Quantification of protein levels presented as mean ± standard deviation of n = 3 biological replicates. Si gnificance compared to vehicle: * = p≤0.05 , […]
2.5. Aqueous Stability Assay
For stability testing in aqueous solution, a 10-fold concentrated DMSO solution of the respective compounds was diluted in DPBS to generate a 10 µM concentration (final DMSO content of 10%).
Samples of the aqueous solutions were taken after 0, 24, 48, and 72 h at room temperature and the amounts of the parental compound and potential fragments were monitored by HPLC gradient A (see 3.1 General Information). The peak area of the 0 h sample was used for normalization. All compounds were tested in duplicates and GraphPad Prim was used for evaluation and data visualization.
The cell lysis was performed as descripted in 3.2. Simple Western Immunoassay. […]
Afterwards, proteins were transferred with the Trans -Blot Turbo Transfer System (Catalog# 1704150, Bio-Rad) to Immobilon-FL PVDF membranes (Catalog# IPFL00005, Mill ipore Merck, Burlington, MA, USA) at 1.0 A for 30 min and treated with 5% milk-powder solution for 1 h at room temperature under slight agitation. […] The ChemiDoc XRS+ System (Catalog# 1708265 , Bio-Rad) was used for detection and Image Lab Software 6.1 (Bio-Rad) for quantification. […]
In vitro inhibitory activities against HDAC1, 2 , and 6 were measured using a previously published protocol.[3] In vitro inhibitory activities against HDAC4 were measured using a previously published protocol with slight modifications. […]

MM.1S cells = assay: Cell cycle analysis by PI staining and flow cytometry; assay type: cell-based, human; conditions: 10 μM, 48 h
Procedure: GraphPad Prism (GraphPad Software). […]
Biotech), resuspended in 1 mL EtOH/D PBS (7/3 v/v), and fixed for 30 min at 4 °C. The samples were rehydrated with DPBS and treated with 5 µg /mL RNAse ( Catalog# EN0531 , ThermoFisher Scientific Inc.) for 15 min at room temperature. The staining was performed with 3 µM propidium iodide (in DPBS) for 15 min at room temperature and analyzed by flow cytometry ( Guava easyCyteTM, Luminex, […]
Lakes, NJ, USA), using the Watson Pragmatic algorithm.[6] GraphPad Prism (GraphPad Software) was used for normalization, statistical analysis, and bar graph creation. Significance testing was performed with a one-way analysis of variance (ANOVA). Dunnett’s post-hoc test was employed to obtain […]
Final DMSO concentration was 0.1%.
Staining was performed with
Fluorescence was measured by flow cytometry (Guava® easyCyteTM, Luminex, Austin, Texas). GraphPad Prism (GraphPad Software) was used for normalization, statistical analysis, and bar graph creation. Significance testing was performed with a one-way analysis of variance (ANOVA).
Subsequently, cells were harvested and […]
After 30 minutes of incubation at […]
Dunnett’s post-hoc test was employed

MDA-MB-231 cells = assay: Clonogenic growth assay; assay type: cell-based, human; conditions: 10 μM for 48 h, nine days of growth
Procedure: Figure 9 Clonogenic growth assay of DCAF11‐recruiting PROTACs. MDA‐MB‐231 cells were treated with 10 μM of the respective compound or vehicle (DMSO) for 48 hours. (A) Representative images of crystal violet stained colonies after nine days of growth. (B) Quantification of counted colonies, presented as mean ± standard deviation of three biological replicates, each performed in triplicates. Significance of quantification compared to vehicle: ns=p≥0.05; **=p≤0.01 and ***=p≤0.001. […]
Subsequently, cells were harvested and
plated in 6-well plates at a density of 750 cells per well in triplicates. The cell culture medium was
changed after five days. Nine days after plating, the colonies were carefully washed with 500 µL DPBS
and stained with 500 µL crystal violet solution (0.5% in methanol). After 30 minutes of incubation at
room temperature, the wells were gently rinsed with deionized water. After counting the formed
colonies, GraphPad Prism (GraphPad Software) was used for bar graph creation. Significance testing
was performed with a one-way analysis of variance (ANOVA). Dunnett’s post-hoc test was employed
to obtain significance levels of each mean compared to a reference mean value.

SMILES | degraded HDAC isoforms (HDAC) | decomposition / reduction in content in DPBS buffer [1] | effect on cell cycle phases (MM.1S cells) | reduction of colonies (clonogenic growth) (MDA-MB-231 cells)
O=C(CCCCCCC(=O)N/N=C/c1ccc(OCCOCCOCCn2cc(CNc3cccc4c3C(=O)N(C3CCC(=O)NC3=O)C4=O)nn2)cc1)NO (centres unmarked) [I] | only HDAC6 was degraded | – | – | –
Cc1ncsc1-c1ccc([C@@H](C)NC(=O)[C@H]2C[C@H](O)CN2C(=O)[C@H](NC(=O)CCOCCOCCN(CCc2c[nH]c3ccccc23)Cc2ccc(/C=C/C(=O)NO)cc2)C(C)(C)C)cc1 [V] | degraded HDAC3 and 8 | – | – | –
O=C(CCCCCCC(=O)Nc1ccccc1)NO [Vorinostat, vorinostat, reference compound] | – | remained intact | stronger effects on the different phases of the cell cycle | less pronounced and not significant

From PMC12091851, “Replacing a Cereblon Ligand by a DDB1 and CUL4 Associated Factor 11 (DCAF11) Recruiter Converts a Selective Histone Deacetylase 6 PROTAC into a Pan‐Degrader” (Chemmedchem, 2025)
